The supplement of paper PMC3937590

Key:
Assay in all cases: -log10 GI50 (growth inhibition 50%) (-log10(M)); higher = more potent growth inhibition
[1] = tested on: LY2
Outline: (§1)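 A value carrying a < qualifier equals the top dose tested. Each compound was tested in triplicate on breast cancer cell lines for 72 hours at nine doses in 1:5 serial dilution, using a luminescence read-out against a time-zero plate. Nonlinear least squares fitting of a Gompertz curve gave GI50, the molar concentration causing the set level of growth inhibition, which is reported as its negative logarithm. The logarithm is base 10.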

[2] = tested on: MCF7
Outline: as §1

[3] = tested on: SUM1315MO2
Outline: as §1

[4] = tested on: T47D
Outline: as §1

[5] = tested on: 184A1
Outline: as §1

[6] = tested on: MDAMB175VII
Outline: as §1

[7] = tested on: SUM225CWN
Outline: as §1

[8] = tested on: HCC2185
Outline: as §1

[9] = tested on: HCC1954
Outline: as §1

[10] = tested on: BT474
Outline: as §1

[11] = tested on: 600MPE
Outline: as §1

[12] = tested on: HCC3153
Outline: as §1

[13] = tested on: HCC1937
Outline: as §1

[14] = tested on: MDAMB157
Outline: as §1

[15] = tested on: MDAMB415
Outline: as §1

[16] = tested on: SUM159PT
Outline: as §1

[17] = tested on: MDAMB231
Outline: as §1

[18] = tested on: SUM185PE
Outline: as §1

[19] = tested on: HCC1428
Outline: as §1

[20] = tested on: BT483
Outline: as §1

| Structure (SMILES) | -log10 GI50 [1] | -log10 GI50 [2] | -log10 GI50 [3] | -log10 GI50 [4] | -log10 GI50 [5] | -log10 GI50 [6] | -log10 GI50 [7] | -log10 GI50 [8] | -log10 GI50 [9] | -log10 GI50 [10] | -log10 GI50 [11] | -log10 GI50 [12] | -log10 GI50 [13] | -log10 GI50 [14] | -log10 GI50 [15] | -log10 GI50 [16] | -log10 GI50 [17] | -log10 GI50 [18] | -log10 GI50 [19] | -log10 GI50 [20] |
| --- | --- | --- | --- | --- | --- | --- | --- | --- | --- | --- | --- | --- | --- | --- | --- | --- | --- | --- | --- | --- |
| CC(=O)NCC(=O)N1[C@@H]2CC[C@H]1c1ccc(Nc3ncc(C(F)(F)F)c(NC4CCC4)n3)cc12 | 5.5 | 5.71 | 6.12 | 5.14 | 5.66 | 5.63 | 5.05 | 4.98 | 5.16 | 5.22 | 6.03 | 5.38 | 5.2 | 6.1 | 5.18 | 6.37 | 5.53 | 6.63 | 5.37 |  |
| CCC[C@H](N[C@H]1CCc2cc(F)cc(F)c2C1)C(=O)Nc1cn(C(C)(C)CNCC(C)(C)C)cn1 | 4.68 | 4.49 | 4.65 | 4.91 | 5.87 | 5.24 | 4.84 | 4.99 | 4.84 | 4.37 | < 4.18 | 4.37 | 4.54 | 4.88 | 4.9 | < 4.18 | < 4.18 | 4.84 | 4.45 |  |
| COc1cc2c(Nc3ccc(NC(=O)c4ccccc4)cc3)ncnc2cc1OCCCN1CCOCC1 |  | < 4.48 | < 4.3 | 4.94 | < 4.3 | 5.26 | 4.98 | 5.96 | < 4.48 | 4.29 | < 4 | < 4 | 5.23 | 5.66 | 5.45 | 6.14 | < 4.3 | 4.5 | 4.56 | 4.56 |
| COc1ccc(-c2cc3c(C)nc(N)nc3n([C@H]3CC[C@H](OCCO)CC3)c2=O)cn1 | 7.04 | 7.39 | 7.06 | 7.27 | 6.96 | 7.23 | 6.79 | 7.12 | 6.88 | 6.91 | 7.32 | 4.87 | 6.92 | 6.13 | 7.08 | 6.73 | 6.35 | 6.77 | 6.51 |  |
| COc1ncc(-c2ccc3nccc(-c4ccnnc4)c3c2)cc1NS(=O)(=O)c1ccc(F)cc1F | 7.94 | 8.14 | 8.02 | 8.45 | 8.77 | 8.73 | 8.79 | 8.04 | 8.04 | 8.36 | 8.22 | 7.38 | 7.57 | 6.51 | 5.86 | 7.63 | 6.37 |  | 7.57 | 8.94 |
| Cn1ncc(Cl)c1-c1cc(C(=O)N[C@H](CN)Cc2ccc(F)c(F)c2)oc1Cl | 6.62 | 6.91 | 5.01 | 7.35 |  | 6.56 | 6.88 | > 9.77 |  | 7.16 |  | 6.12 |  | 5.22 | 7.24 | 6.28 | 5.09 | 6.28 | 4.94 |  |
| O=C1NC(=O)/C(=C/c2ccc(-c3ccc(F)cc3O)o2)S1 | 4.51 | 4.8 | 4.92 | 5.25 | 5.43 | 5.29 | 5.47 | 4.91 | 5.46 | 5.41 | 5.19 | < 4.18 | < 4.18 | < 4.48 | < 4.48 | 5.23 | < 4.48 |  | 5.34 | 4.77 |
| Oc1cc(-c2nc(-c3ccccc3)[nH]c2-c2ccncc2)ccc1Cl |  | < 4.48 | 4.69 | < 4.48 | 5.06 | 5.09 | 5.15 | < 4.48 | < 4.48 | 4.79 | 5.07 | < 4.48 | 4.84 | 4.88 | 4.59 | 4.78 | 4.87 | 5.19 | 4.97 | 4.84 |
| CN(C)C/C=C/C(=O)Nc1cc2c(Nc3ccc(F)c(Cl)c3)ncnc2cc1O[C@H]1CCOC1 [BIBW2992] | 5.65 |  | 6.79 |  | 7.74 | 8.35 | 8.03 | 5.86 | 6.91 | 8.23 | 5.63 |  | 5.68 | 5.61 | 5.86 | 5.59 | 5.51 | 5.46 | 5.76 | 5.78 |
| O=c1cc(-c2ccccc2)oc2cc(O)c(O)c(O)c12 [Baicalein] | 4.19 | 4.3 | 4.55 | 4.52 | < 3.78 | 3.96 | 4.43 | 4.3 | < 3.78 | 4.3 | < 3.78 | 4.69 | 4.46 | 4.28 | < 3.78 | 3.82 | 4.75 |  | 4.41 | 4.44 |
| COc1cc(Nc2c(C#N)cnc3cc(OCCCN4CCN(C)CC4)c(OC)cc23)c(Cl)cc1Cl [Bosutinib] | 5.66 | 5.59 | 6.12 |  | 6.3 | 6.07 | 5.81 | 5.3 | 5.92 | 5.71 | 5.27 | 5.18 | 5.84 | 5.88 | 5.73 | 5.86 | 5.55 |  | 5.43 | 5.43 |
